Starred links: 1 amine or outer side, 2 acyl side, 3 side chain; linkers in the order of their positions; H or OH if unused. Non-standard residues stand in square brackets, D forms with d. Residues, ends and D or L forms follow the SMILES beside them. ξ: configuration not given here. *: point of attachment. ξBip(2'-Et-4'-OMe) = CCc1cc(OC)ccc1-c1ccc(CC(N)C(=O)O)cc1; X12 = COc1ccc(CCCC(N[*:1])C(=O)[*:2])c(Cl)c1; ξαMePhe(2-F) = CC(N)(Cc1ccccc1F)C(=O)O; X2 = O=C(C(CCCc1ccccc1Cl)N[*:1])[*:2]; ξhhPhe = NC(CCCc1ccccc1)C(=O)O; Aib = CC(C)(N)C(=O)O; Moc = COC(=O)*
Tests used:
[1] = test system: C57BL/6J mice (mild hyperglycemic); assay: In vivo glucose reduction, acute single dose 120-min time-course, i.p. route; parameters: species or system mouse; unit not given here; conditions: male C57BL/6J mice
Procedure: All the animal experiments were carried out according to the internationally valid guidelines following approval by the ‘Zydus Research Center animal ethical committee’.
Two days prior to the study, the animals were randomised and divided into 5 groups (n=6), based upon their fed glucose levels. On the day of experiment, food was withdrawn from all the cages, water was given ad-libitum and were kept for overnight fasting. Vehicle (normal saline)/test/standard compounds were administered intraperitoneally (i.p.) or orally, on a body weight basis.
Blood samples were centrifuged and the separated serum was immediately subjected for the glucose estimation. Serum for insulin estimation was stored at −70° C. until used for the insulin estimation. The glucose estimation was carried out with DPEC-GOD/POD method (Ranbaxy Fine Chemicals Limited, Diagnostic division, India), using Spectramax-190, in 96-microwell plate reader (Molecular devices Corporation, Sunnyvale, Calif.). […] The AUC and BCAUC obtained from graphs were analyzed for one way ANOVA, followed by Dunnett's post test, using Graph Pad prism software. Furthermore, the insulin estimation was carried out using rat/mouse insulin ELISA kit (Linco research, Missouri USA).

[2] = Stability in simulated gastric fluid; assay type: in vitro ADME; conditions: 2 μM peptidomimetic, simulated gastric fluid pH 1.5, 37° C.
Procedure: (§1) Reactions were terminated by the addition of TFA/H2O (15 mL, 10% (v/v)). […] The column was equilibrated with TFA/H20, at a flow rate of 1 mL/min.

[3] = Stability in human plasma; assay type: in vitro ADME; conditions: 2 μM peptidomimetic, pooled human plasma, 37° C.
Procedure: as §1

[4] = test system: RIN5F (Rat Insulinoma) cells; assay: In vitro glucose-dependent insulin secretion (RIN5F cell assay screening protocol); assay type: cell-based; conditions: 16.7 mM glucose load
[5] = molecular target: DPP IV (Homo sapiens, UniProt P27487); assay: Stability against DPP IV enzyme; assay type: in vitro ADME; conditions: 37° C.
Procedure: as §1

[6] = molecular target: T1, Human GLP-1 receptor (Homo sapiens, UniProt P43220); assay: In vitro Human GLP-1 R agonist activity (cyclic AMP determination) in CHO/human GLP1R cells; assay type: cell-based
T1 construct: The full-length cDNA was cloned in pcDNA3.1(+); expressed in transfected cells

[7] = molecular target: T2, human glucagon receptor (Homo sapiens, UniProt P47871); assay: In vitro human glucagon antagonist activity (inhibition of cAMP production) in CHO/human glucagon R cells; assay type: cell-based; conditions: with saturated concentration of glucagon peptide
T2 construct: The full-length cDNA was cloned in pcDNA3.1 (Invitrogen); expressed in transfected cells

[8] = Stability in liver microsomes; assay type: in vitro ADME; conditions: 2 μM peptidomimetic, human liver microsomes, 37° C.
Procedure: as §1

[9] = Stability in simulated intestinal fluid; assay type: in vitro ADME; conditions: 2 μM peptidomimetic, simulated intestinal fluid pH 7.5, 37° C.
Procedure: as §1

T1 sequence (P43220 24-463): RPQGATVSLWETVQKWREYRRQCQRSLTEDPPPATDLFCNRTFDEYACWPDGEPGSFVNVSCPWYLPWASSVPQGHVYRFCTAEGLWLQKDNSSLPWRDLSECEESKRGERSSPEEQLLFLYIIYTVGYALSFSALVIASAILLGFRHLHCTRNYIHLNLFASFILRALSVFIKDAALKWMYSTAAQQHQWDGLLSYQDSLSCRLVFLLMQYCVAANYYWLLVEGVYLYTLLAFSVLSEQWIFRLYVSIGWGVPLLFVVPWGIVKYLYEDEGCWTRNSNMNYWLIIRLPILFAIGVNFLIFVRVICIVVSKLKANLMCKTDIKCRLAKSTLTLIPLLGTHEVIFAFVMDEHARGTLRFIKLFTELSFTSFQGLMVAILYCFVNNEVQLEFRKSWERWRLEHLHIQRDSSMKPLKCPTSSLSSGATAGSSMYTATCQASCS
T2 sequence (P47871 26-477): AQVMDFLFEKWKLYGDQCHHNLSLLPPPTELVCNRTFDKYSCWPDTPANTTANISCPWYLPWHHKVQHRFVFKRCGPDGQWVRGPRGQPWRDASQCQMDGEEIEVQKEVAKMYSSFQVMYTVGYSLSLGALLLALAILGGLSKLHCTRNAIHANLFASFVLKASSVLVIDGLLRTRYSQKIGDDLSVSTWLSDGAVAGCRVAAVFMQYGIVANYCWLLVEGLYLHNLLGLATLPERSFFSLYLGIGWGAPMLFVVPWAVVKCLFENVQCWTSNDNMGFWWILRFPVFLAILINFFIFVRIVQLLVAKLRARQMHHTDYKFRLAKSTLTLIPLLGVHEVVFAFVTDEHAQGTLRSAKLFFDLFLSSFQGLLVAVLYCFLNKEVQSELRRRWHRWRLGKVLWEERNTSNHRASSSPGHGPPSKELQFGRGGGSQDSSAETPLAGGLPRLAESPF
Chain of DPP IV (P27487 whole entry, species assumed): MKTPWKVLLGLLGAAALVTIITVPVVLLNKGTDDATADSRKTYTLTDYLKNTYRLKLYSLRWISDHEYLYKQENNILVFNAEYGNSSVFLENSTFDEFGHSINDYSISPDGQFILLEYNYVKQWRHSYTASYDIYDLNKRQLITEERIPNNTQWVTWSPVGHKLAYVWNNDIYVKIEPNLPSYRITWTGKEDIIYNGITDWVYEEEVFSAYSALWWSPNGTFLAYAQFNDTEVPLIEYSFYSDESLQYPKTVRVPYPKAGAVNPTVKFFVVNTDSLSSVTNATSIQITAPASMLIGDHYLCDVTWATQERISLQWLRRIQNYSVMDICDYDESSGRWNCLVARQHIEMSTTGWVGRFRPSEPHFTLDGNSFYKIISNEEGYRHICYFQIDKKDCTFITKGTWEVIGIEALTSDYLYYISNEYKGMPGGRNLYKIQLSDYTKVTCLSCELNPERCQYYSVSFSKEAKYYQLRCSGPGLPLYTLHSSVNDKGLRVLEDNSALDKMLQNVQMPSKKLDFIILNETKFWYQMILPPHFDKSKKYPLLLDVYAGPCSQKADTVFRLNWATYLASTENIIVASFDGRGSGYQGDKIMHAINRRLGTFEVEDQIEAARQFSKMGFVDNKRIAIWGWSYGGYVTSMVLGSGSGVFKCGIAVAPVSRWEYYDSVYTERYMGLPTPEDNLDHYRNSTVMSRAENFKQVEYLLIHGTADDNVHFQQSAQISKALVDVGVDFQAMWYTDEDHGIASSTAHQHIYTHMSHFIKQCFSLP

Compound: CCc1cc(OC)ccc1-c1ccc(CC(CNC(CCCc2ccccc2F)C(N)=O)NC[C@H](CC(=O)O)NC(=O)[C@H](CO)NC(=O)[C@@H](NC(=O)C(C)(Cc2ccccc2F)NC(=O)[C@@H](NC(=O)CNC(=O)[C@H](CCC(N)=O)NC(=O)C(C)(C)NC(=O)[C@H](Cc2c[nH]cn2)NC(=O)OC)[C@@H](C)O)[C@@H](C)O)cc1 (single isomer, unassigned) [Seq. ID. 196]
- blood glucose levels ([1]; 50 nM/kg i.p., 0 min): 181 ± 2.5
- blood glucose levels ([1]; 50 nM/kg i.p., 30 min): 111 ± 3.4
- blood glucose levels ([1]; 50 nM/kg i.p., 60 min): 113 ± 3.1
- blood glucose levels ([1]; 50 nM/kg i.p., 120 min): 110 ± 1.8

Compound: CCc1cc(OC)ccc1-c1ccc(CC(CNC(CCCc2ccccc2F)C(N)=O)NC(=O)[C@H](CC(=O)O)NC(=O)[C@H](CO)NC(=O)[C@@H](NC(=O)C(C)(Cc2ccccc2F)NC(=O)[C@@H](NC(=O)CNC(=O)C(CCC#N)NC(=O)C(C)(C)NC(=O)[C@@H](N)Cc2c[nH]cn2)[C@H](C)O)[C@H](C)O)cc1 (single isomer, unassigned) [Seq. ID. 192]
- blood glucose levels ([1]; 10 nM/kg i.p., 0 min): 180 ± 2.5
- blood glucose levels ([1]; 10 nM/kg i.p., 30 min): 110 ± 2.6
- blood glucose levels ([1]; 10 nM/kg i.p., 60 min): 111 ± 3.2
- blood glucose levels ([1]; 10 nM/kg i.p., 120 min): 112 ± 2.3

Compound: CCc1cc(OC)ccc1-c1ccc(CC(NC(=O)[C@H](CC(=O)O)NC(=O)[C@H](CO)NC(=O)[C@@H](NC(=O)C(C)(Cc2ccccc2F)NC(=O)[C@@H](NC(=O)CNC(=O)[C@H](CCC(N)=O)NC(=O)C(C)(C)NC(=O)[C@@H](N)Cc2c[nH]cn2)[C@@H](C)O)[C@@H](C)O)C(=O)NC(CCCc2ccc(OC)cc2Cl)C(N)=O)cc1 (some centres unmarked) [Seq. ID. 92] (H-H[Aib]QGT[ξαMePhe(2-F)]TSD[ξBip(2'-Et-4'-OMe)][X12]-NH2)
- blood glucose levels ([1]; 10 nM/kg i.p., 0 min): 180 ± 4.2
- blood glucose levels ([1]; 10 nM/kg i.p., 30 min): 113 ± 3.2
- blood glucose levels ([1]; 10 nM/kg i.p., 60 min): 112 ± 2.4
- blood glucose levels ([1]; 10 nM/kg i.p., 120 min): 110 ± 1.9

Compound: CCc1cc(OC)ccc1-c1ccc(CC(NC(=O)[C@H](CC(=O)O)NC(=O)[C@H](CO)NC(=O)[C@@H](NC(=O)C(C)(Cc2ccccc2F)NC(=O)[C@@H](NC(=O)CNC(=O)[C@H](CCC(N)=O)NC(=O)C(C)(C)NC(=O)[C@@H](N)Cc2c[nH]cn2)[C@@H](C)O)[C@@H](C)O)C(=O)NC(CCCc2ccccc2Cl)C(N)=O)cc1 (some centres unmarked) [Seq. ID. 90] (H-H[Aib]QGT[ξαMePhe(2-F)]TSD[ξBip(2'-Et-4'-OMe)][X2]-NH2)
- blood glucose levels ([1]; 10 nM/kg i.p., 0 min): 181 ± 2.5
- blood glucose levels ([1]; 10 nM/kg i.p., 30 min): 111 ± 3.4
- blood glucose levels ([1]; 10 nM/kg i.p., 60 min): 113 ± 3.1
- blood glucose levels ([1]; 10 nM/kg i.p., 120 min): 110 ± 1.8

Compound: CCc1cc(OC)ccc1-c1ccc(CC(CNC(CCCc2ccccc2)C(N)=O)NC[C@H](CC(=O)O)NC(=O)[C@H](CO)NC(=O)[C@@H](NC(=O)C(C)(Cc2ccccc2F)NC(=O)[C@@H](NC(=O)CNC(=O)[C@H](CCC(N)=O)NC(=O)C(C)(C)NC(=O)[C@H](Cc2c[nH]cn2)NC(=O)OC)[C@H](C)O)[C@H](C)O)cc1 (single isomer, unassigned) [Seq. ID. 198]
- blood glucose levels ([1]; 50 nM/kg i.p., 0 min): 182 ± 4.1
- blood glucose levels ([1]; 50 nM/kg i.p., 30 min): 112 ± 3.1
- blood glucose levels ([1]; 50 nM/kg i.p., 60 min): 113 ± 2.6
- blood glucose levels ([1]; 50 nM/kg i.p., 120 min): 111 ± 1.8

Compound: CCc1cc(OC)ccc1-c1ccc(CC(C(=O)N(C)C(CCCc2ccccc2F)C(N)=O)N(C)C(=O)[C@H](CC(=O)O)N(C)C(=O)[C@H](CO)NC(=O)[C@@H](NC(=O)C(C)(Cc2ccccc2F)NC(=O)[C@@H](NC(=O)CNC(=O)C(CCC#N)NC(=O)C(C)(C)NC(=O)[C@@H](N)Cc2c[nH]cn2)[C@H](C)O)[C@H](C)O)cc1 (single isomer, unassigned) [Seq. ID. 156]
- blood glucose levels ([1]; 30 nM/kg i.p., 0 min): 180 ± 3.2
- blood glucose levels ([1]; 30 nM/kg i.p., 30 min): 119 ± 3.2
- blood glucose levels ([1]; 30 nM/kg i.p., 60 min): 117 ± 3.1
- blood glucose levels ([1]; 30 nM/kg i.p., 120 min): 118 ± 1.8

Compound: CCc1cc(OC)ccc1-c1ccc(CC(CNC(CCCc2ccccc2)C(N)=O)NC[C@H](CC(=O)O)NC(=O)[C@H](CO)NC(=O)[C@@H](NC(=O)C(C)(Cc2ccccc2F)NC(=O)[C@@H](NC(=O)CNC(=O)[C@H](CCC(N)=O)NC(=O)C(C)(C)NC(=O)[C@H](Cc2c[nH]cn2)NC(=O)OC)[C@@H](C)O)[C@@H](C)O)cc1 (single isomer, unassigned) [Seq. ID. 194]
- blood glucose levels ([1]; 10 nM/kg i.p., 0 min): 183 ± 2.2
- blood glucose levels ([1]; 10 nM/kg i.p., 30 min): 113 ± 2.8
- blood glucose levels ([1]; 10 nM/kg i.p., 60 min): 113 ± 2.9
- blood glucose levels ([1]; 10 nM/kg i.p., 120 min): 114 ± 2.0

Compound: CCc1cc(OC)ccc1-c1ccc(CC(NC(=O)[C@H](CC(=O)O)NC(=O)[C@H](CO)NC(=O)[C@@H](NC(=O)C(C)(Cc2ccccc2F)NC(=O)[C@@H](NC(=O)CNC(=O)[C@H](CCC(N)=O)NC(=O)C(C)(C)NC(=O)[C@H](Cc2c[nH]cn2)NC(=O)OC)[C@@H](C)O)[C@@H](C)O)C(=O)NC(CCCc2ccccc2)C(N)=O)cc1 (some centres unmarked) [Seq. ID. 94] (Moc-H[Aib]QGT[ξαMePhe(2-F)]TSD[ξBip(2'-Et-4'-OMe)][ξhhPhe]-NH2)
- blood glucose levels ([1]; 10 nM/kg i.p., 0 min): 182 ± 4.1
- blood glucose levels ([1]; 10 nM/kg i.p., 30 min): 112 ± 3.1
- blood glucose levels ([1]; 10 nM/kg i.p., 60 min): 113 ± 2.6
- blood glucose levels ([1]; 10 nM/kg i.p., 120 min): 111 ± 1.8

Compound: CCc1cc(OC)ccc1-c1ccc(CC(CNC(CCCc2ccccc2F)C(N)=O)NC[C@H](CC(=O)O)NC(=O)[C@H](CO)NC(=O)[C@@H](NC(=O)C(C)(Cc2ccccc2F)NC(=O)[C@@H](NC(=O)CNC(=O)[C@H](CCC(N)=O)NC(=O)C(C)(C)NC(=O)[C@H](Cc2c[nH]cn2)NC(C)=O)[C@@H](C)O)[C@@H](C)O)cc1 (single isomer, unassigned) [Seq. ID. 195]
- blood glucose levels ([1]; 10 nM/kg i.p., 0 min): 182 ± 2.3
- blood glucose levels ([1]; 10 nM/kg i.p., 30 min): 110 ± 2.3
- blood glucose levels ([1]; 10 nM/kg i.p., 60 min): 112 ± 3.0
- blood glucose levels ([1]; 10 nM/kg i.p., 120 min): 112 ± 1.9

Compound: CCc1cc(OC)ccc1-c1ccc(CC(NC(=O)[C@H](CC(=O)O)NC(=O)[C@H](CO)NC(=O)[C@@H](NC(=O)C(C)(Cc2ccccc2F)NC(=O)[C@@H](NC(=O)CNC(=O)C(CCC#N)NC(=O)C(C)(C)NC(=O)[C@@H](N)Cc2c[nH]cn2)[C@H](C)O)[C@H](C)O)C(=O)NC(CCCc2ccccc2F)C(N)=O)cc1 (single isomer, unassigned) [compound 116]
- % degradation of peptidomimetics in 24 h when incubated with simulated gastric fluid ([2]; 24 h): 43%
- half-life at 2 μM ([2]; read-out: half-life (t1/2) when incubated with simulated gastric fluid): 4 h
- % degradation of peptidomimetics in 24 h when incubated with human plasma ([3]; 24 h): 00%
- half-life at 2 μM ([3]; pH 7.8, read-out: half-life (t1/2) when incubated with human plasma): > 24 h
- Insulin secretion ([4]; 0.1 nM test compd.): 16.4 ± 0.12 pg/µg/h
- Insulin secretion ([4]; 1 nM test compd.): 22.7 ± 0.17 pg/µg/h
- Insulin secretion ([4]; 10 nM test compd.): 36.6 ± 0.05 pg/µg/h
- % degradation of peptidomimetics in 24 h when incubated with DPP-IV enzyme ([5]; 2 μM peptidomimetic, 24 h): 00%
- half-life at 2 μM ([5]; DPP IV enzyme, pH 7.8, 2 μM peptidomimetic, read-out: half-life (t1/2) when incubated with DPP-IV enzyme): > 24 h
- Human GLP-1 R activity (cAMP release), % activity with respect to control ([6]; 1 nM test compound): 55 ± 0.16%
- Human GLP-1 R activity (cAMP release), % activity with respect to control ([6]; 10 nM test compound): 88 ± 0.13%
- Human GLP-1 R activity (cAMP release), % activity with respect to control ([6]; 100 nM test compound): 92 ± 0.11%
- Human GLP-1 R activity (cAMP release), % activity with respect to control ([6]; 1 μM test compound): 99 ± 0.07%
- Human GLP-1 R activity (cAMP release), % activity with respect to control ([6]; 10 μM test compound): 99 ± 0.09%
- Human Glucagon receptor antagonistic activity shown as inhibition of cAMP production of Glucagon peptide ([7]; 1 nM test compound): 2 ± 0.03 pmol/ml/μg prt
- Human Glucagon receptor antagonistic activity shown as inhibition of cAMP production of Glucagon peptide ([7]; 10 nM test compound): 0 pmol/ml/μg prt
- Human Glucagon receptor antagonistic activity shown as inhibition of cAMP production of Glucagon peptide ([7]; 100 nM test compound): 0 pmol/ml/μg prt
- Human Glucagon receptor antagonistic activity shown as inhibition of cAMP production of Glucagon peptide ([7]; 1 μM test compound): 0 pmol/ml/μg prt
- Human Glucagon receptor antagonistic activity shown as inhibition of cAMP production of Glucagon peptide ([7]; 10 μM test compound): 0 pmol/ml/μg prt
- % degradation of peptidomimetics in 24 h when incubated with liver microsomes ([8]; 24 h): 84%
- half-life at 2 μM ([8]; pH 7.8, read-out: half-life (t1/2) when incubated with liver microsomes): 2 h
- % degradation of peptidomimetics in 24 h when incubated with simulated intestinal fluid ([9]; 24 h): 00%
- half-life at 2 μM ([9]; read-out: half-life (t1/2) when incubated with simulated intestinal fluid): > 24 h

From patent US8883963B2 (Cadila Healthcare Limited, priority 2007, dated 2014)
